The source made the active and inactive calls.
Columns and labels:
[1] = target: Voltage-dependent T-type calcium channel subunit alpha-1H (Homo sapiens, UniProt O95180); type: functional;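 note: channel activity triggered by adding a high calcium stimulation buffer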
Nonstructural protein 1 = Nonstructural protein 1 (Influenza A virus, UniProt Q194T2); type: functional, Influenza A virus (A/California/07/2009(H1N1))
[2] = target: T1, Short transient receptor potential channel 4 (Mus musculus, UniProt Q9QUQ5); assay: block of DAMGO-driven TRPC4 calcium entry – cell-based, HEK293 TRPC4/mu-opioid, Fluo-4 calcium, dose response (AID 434942); type: functional;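 note: potency of inhibitors blocking the TRPC4 calcium response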
T1 sequence (Q9QUQ5 whole entry): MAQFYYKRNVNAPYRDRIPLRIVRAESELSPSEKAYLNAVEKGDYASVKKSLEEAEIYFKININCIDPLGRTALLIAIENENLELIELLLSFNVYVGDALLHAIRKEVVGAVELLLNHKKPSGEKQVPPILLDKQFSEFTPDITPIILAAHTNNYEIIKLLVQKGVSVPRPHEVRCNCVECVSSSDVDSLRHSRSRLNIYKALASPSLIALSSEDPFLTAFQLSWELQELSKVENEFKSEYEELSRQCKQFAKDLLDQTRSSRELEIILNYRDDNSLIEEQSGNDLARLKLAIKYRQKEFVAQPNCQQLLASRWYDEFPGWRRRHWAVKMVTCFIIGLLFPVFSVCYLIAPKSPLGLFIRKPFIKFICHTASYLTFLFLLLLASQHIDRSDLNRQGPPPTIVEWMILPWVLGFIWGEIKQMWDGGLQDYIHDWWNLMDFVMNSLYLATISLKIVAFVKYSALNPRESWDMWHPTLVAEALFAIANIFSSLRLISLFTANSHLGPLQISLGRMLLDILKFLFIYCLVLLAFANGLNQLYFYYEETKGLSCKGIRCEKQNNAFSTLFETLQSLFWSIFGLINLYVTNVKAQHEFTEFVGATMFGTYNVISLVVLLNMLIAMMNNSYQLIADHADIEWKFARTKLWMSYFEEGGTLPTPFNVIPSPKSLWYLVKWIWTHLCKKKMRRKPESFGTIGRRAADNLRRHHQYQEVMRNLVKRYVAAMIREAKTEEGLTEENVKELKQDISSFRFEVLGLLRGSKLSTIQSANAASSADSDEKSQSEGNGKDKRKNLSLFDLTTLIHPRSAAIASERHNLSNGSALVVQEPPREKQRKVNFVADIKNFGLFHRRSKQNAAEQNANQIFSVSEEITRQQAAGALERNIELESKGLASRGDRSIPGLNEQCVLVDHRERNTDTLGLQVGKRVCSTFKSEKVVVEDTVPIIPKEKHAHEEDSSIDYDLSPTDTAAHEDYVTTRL

[3] = viability of PTEN-deleted HCT116 cells – cell-based, HCT116 PTEN knockout, dose response (AID 1047); type: functional;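 note: HCT116 colon tumor cells with PTEN knocked out; cells exposed to compound for 60 hours before readout; potency for loss of cell viability measured by luminescence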
[4] = target: T2, RNA-binding protein pos-1 (Caenorhabditis elegans, UniProt G5EF15); assay: disruptors of C. elegans POS-1 RNA interaction – biochemical, fluorescence polarization, dose response (AID 1964);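 note: purified POS-1 fused to maltose binding protein made in E. coli; potency of compounds blocking POS-1 binding to fluorescent RNA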
T2 sequence (G5EF15 whole entry): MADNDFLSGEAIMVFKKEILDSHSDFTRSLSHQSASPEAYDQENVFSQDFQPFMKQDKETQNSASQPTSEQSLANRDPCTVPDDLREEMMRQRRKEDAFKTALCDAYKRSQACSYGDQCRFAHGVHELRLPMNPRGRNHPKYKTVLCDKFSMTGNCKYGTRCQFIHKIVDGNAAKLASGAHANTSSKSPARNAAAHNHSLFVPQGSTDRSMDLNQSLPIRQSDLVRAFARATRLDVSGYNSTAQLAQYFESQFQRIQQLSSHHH

[5] = target: T3, Zinc finger protein mex-5 (Caenorhabditis elegans, UniProt Q9XUB2); assay: potency of MEX-5 RNA-binding blockers – biochemical, C. elegans, fluorescence polarization, dose response (AID 1960)
T3 sequence (Q9XUB2 whole entry): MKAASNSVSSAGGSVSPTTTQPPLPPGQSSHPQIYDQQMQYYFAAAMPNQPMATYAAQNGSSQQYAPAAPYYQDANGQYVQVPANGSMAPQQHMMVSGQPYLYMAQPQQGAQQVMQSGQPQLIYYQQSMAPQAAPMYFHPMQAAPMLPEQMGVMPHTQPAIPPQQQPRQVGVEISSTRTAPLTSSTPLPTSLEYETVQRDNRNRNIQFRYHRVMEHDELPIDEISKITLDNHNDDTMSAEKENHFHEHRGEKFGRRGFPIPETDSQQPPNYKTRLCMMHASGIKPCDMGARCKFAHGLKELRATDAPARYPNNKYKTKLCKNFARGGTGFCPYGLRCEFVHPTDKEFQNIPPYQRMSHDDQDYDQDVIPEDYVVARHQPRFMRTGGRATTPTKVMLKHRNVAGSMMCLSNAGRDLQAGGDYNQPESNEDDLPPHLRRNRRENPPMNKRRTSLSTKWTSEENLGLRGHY

[6] = target: G-protein coupled receptor 35 (Homo sapiens, UniProt Q9HC97); assay: inhibition of zaprinast-stimulated GPR35 beta-arrestin translocation – imaging, U2OS, beta-arrestin-GFP, zaprinast agonist, primary screen (AID 2058); type: functional;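 note: antagonist potency meaning inhibition of agonist-induced arrestin redistribution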
Chain of G-protein coupled receptor 35 (Q9HC97 whole entry): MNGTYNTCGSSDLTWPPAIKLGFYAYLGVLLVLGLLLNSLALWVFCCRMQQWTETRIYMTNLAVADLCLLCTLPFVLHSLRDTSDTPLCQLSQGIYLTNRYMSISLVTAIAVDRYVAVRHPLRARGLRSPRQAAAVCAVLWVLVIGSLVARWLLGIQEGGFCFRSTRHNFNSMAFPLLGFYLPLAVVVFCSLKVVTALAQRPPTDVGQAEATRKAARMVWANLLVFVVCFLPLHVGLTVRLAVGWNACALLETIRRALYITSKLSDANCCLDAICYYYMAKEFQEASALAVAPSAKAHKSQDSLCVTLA

[7] = viability of HCT116 lacking mutant beta-catenin – cell-based, human colon tumor, dose response (AID 1045); type: functional;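 note: HCT116 colon tumor cells with beta catenin knocked out; cells exposed to compound for 60 hours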
[8] = target: T1, Short transient receptor potential channel 4; assay: calcium entry via TRPC4 opening agents – cell-based, HEK293 TRPC4/mu-opioid, Fluo-4 calcium, dose response (AID 434937); type: functional
Hexokinase = target: T4, Hexokinase (Trypanosoma brucei, UniProt Q38C41); assay: Confirmation assay for inhibitors of Trypanosoma brucei hexokinase 1-Analogue-first series. [Related pubchem assays (depositor defined):AID1430, AID1632, AID2516, AID2560, AID2579, AID2600, AID449725, AID492951]; type: functional
T4 sequence (Q38C41 whole entry): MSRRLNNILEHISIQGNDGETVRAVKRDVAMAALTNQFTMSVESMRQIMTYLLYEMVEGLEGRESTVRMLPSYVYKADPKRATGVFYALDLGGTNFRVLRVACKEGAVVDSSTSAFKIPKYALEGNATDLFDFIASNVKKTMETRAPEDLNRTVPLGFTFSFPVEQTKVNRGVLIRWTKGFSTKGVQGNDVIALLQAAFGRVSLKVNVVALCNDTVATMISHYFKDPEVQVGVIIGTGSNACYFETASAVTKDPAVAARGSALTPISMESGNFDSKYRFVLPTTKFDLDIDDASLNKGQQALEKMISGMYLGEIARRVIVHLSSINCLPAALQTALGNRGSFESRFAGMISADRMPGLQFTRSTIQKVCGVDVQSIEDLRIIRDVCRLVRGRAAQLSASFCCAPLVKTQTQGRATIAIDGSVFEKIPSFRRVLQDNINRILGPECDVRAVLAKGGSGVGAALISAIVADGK

[9] = target: T5, Endoribonuclease toxin MazF (Escherichia coli K-12, UniProt P0AE70); assay: substrate-only fluorescence increase artefacts – biochemical, single-stranded RNase substrate, counter-screen for MazEF activator project, dose response (AID 588502); type: functional
T5 sequence (P0AE70 whole entry): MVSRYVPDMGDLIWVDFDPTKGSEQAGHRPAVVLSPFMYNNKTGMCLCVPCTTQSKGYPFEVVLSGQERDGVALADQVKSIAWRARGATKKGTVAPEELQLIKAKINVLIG

[10] = target: T6, Corticotropin-releasing factor receptor 2/Corticotropin-releasing factor-binding protein (Homo sapiens, UniProt P24387+Q13324); assay: activators of CRF receptor 2 with binding protein – uHTS hits, confirmation (AID 602473); type: functional; conditions: read-out: EC50_Mean
T6 sequence (Q13324 whole entry): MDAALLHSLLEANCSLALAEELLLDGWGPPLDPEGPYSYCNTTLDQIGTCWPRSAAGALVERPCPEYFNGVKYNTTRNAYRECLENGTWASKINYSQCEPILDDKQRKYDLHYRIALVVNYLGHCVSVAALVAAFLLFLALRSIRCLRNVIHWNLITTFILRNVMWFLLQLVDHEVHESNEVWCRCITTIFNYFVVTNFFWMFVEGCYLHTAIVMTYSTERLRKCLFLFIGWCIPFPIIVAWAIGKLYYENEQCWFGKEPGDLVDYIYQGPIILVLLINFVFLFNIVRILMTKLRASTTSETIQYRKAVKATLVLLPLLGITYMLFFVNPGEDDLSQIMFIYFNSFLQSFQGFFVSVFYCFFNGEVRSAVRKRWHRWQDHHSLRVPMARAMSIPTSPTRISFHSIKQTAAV
T6 sequence (P24387 whole entry): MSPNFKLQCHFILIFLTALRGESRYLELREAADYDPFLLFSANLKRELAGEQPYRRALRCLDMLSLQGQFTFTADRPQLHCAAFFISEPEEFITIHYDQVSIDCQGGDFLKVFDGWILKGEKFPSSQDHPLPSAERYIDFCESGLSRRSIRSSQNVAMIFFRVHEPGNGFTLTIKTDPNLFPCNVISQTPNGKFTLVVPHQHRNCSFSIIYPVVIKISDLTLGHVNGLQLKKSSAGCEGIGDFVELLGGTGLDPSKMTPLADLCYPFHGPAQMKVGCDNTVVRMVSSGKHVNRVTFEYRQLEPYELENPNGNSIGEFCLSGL

[11] = target: T5, Endoribonuclease toxin MazF; assay: activation of MazEF endoribonuclease cleavage – biochemical, fluorescence, single-stranded RNA substrate, uHTS hits, dose response (AID 588481); type: functional

Chain of Voltage-dependent T-type calcium channel subunit alpha-1H (O95180 whole entry): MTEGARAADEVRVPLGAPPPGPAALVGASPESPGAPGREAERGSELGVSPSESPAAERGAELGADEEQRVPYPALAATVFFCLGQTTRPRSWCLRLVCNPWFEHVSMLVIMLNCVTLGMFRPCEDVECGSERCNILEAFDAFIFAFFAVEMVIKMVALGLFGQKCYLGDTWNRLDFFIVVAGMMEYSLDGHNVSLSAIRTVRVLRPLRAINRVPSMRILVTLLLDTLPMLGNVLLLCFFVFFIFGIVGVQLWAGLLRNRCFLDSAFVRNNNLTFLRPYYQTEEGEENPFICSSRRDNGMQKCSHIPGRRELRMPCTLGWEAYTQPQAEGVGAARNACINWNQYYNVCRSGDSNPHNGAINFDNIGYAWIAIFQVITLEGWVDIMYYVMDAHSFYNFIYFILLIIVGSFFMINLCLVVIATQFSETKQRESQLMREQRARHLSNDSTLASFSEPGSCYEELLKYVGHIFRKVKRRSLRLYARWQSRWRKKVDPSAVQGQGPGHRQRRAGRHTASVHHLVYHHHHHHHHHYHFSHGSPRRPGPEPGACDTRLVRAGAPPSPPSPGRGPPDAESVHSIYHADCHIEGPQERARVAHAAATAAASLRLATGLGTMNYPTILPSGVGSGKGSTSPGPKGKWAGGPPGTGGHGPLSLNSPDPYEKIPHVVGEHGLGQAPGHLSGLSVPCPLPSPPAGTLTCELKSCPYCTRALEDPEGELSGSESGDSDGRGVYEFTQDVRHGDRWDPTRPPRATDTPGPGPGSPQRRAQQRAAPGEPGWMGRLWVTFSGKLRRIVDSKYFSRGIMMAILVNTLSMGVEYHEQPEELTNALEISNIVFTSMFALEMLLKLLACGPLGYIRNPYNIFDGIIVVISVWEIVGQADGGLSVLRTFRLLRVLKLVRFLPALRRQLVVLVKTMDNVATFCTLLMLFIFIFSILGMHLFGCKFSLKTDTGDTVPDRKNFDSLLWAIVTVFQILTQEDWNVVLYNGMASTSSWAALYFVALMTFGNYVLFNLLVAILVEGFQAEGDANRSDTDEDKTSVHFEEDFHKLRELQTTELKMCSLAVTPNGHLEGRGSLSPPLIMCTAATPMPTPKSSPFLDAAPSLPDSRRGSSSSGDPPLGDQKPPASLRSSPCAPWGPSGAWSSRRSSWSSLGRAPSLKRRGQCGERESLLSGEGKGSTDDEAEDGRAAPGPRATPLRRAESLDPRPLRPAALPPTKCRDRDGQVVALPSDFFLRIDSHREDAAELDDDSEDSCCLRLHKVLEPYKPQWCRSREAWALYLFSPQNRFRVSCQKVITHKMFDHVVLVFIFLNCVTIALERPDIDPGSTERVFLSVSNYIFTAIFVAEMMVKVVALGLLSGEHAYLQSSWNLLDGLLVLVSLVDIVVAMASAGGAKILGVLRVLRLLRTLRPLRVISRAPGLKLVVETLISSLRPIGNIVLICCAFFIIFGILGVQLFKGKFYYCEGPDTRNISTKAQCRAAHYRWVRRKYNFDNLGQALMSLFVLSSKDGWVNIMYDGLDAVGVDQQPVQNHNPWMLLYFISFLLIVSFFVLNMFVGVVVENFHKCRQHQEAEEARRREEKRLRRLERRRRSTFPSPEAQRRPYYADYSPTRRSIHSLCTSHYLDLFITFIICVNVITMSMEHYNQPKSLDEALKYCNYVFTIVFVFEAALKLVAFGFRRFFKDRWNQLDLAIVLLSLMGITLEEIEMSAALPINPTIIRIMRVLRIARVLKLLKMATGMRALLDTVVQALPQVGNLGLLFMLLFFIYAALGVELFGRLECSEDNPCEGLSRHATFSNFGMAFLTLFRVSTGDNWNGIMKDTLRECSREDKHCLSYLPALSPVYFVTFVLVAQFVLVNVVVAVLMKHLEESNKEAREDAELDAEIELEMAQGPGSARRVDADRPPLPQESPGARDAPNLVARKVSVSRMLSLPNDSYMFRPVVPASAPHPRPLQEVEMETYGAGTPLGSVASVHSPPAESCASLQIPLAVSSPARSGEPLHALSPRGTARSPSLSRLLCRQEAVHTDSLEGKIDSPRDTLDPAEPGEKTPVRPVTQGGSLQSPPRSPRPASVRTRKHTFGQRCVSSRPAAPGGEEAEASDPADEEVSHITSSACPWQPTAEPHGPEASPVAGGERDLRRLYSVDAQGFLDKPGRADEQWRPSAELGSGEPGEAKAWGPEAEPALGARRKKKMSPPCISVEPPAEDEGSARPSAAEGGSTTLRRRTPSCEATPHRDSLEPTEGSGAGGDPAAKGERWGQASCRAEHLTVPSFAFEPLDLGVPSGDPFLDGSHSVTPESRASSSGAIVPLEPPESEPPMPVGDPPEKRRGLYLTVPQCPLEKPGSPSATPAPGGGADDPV
Chain of Nonstructural protein 1 (Q194T2 whole entry): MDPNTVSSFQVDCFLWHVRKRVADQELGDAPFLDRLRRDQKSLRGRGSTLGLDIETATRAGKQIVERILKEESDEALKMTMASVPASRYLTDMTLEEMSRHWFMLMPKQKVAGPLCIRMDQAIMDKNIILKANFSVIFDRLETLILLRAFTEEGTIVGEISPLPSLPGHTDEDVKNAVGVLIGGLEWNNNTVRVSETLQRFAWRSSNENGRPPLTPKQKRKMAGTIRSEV

Question: Which EC50 [1] does the source give for Cc1ccccc1NC(=O)c1sc2nc3c(c(-c4ccco4)c2c1N)CCCC3 here?
Answer: The EC50 was 10.1 µM (active).

Question: With CCOC(=O)C1CCCN(S(=O)(=O)c2ccc(OC)c3ccccc23)C1 (stereo not drawn) as the compound, how does the EC50 [1] read?
Answer: The EC50 was 0.647 µM (active).

Question: Which IC50 (Nonstructural protein 1) does the source give for CN(C)c1ccc(NC(=O)CC(NCc2ccccn2)C(=O)O)cc1 (stereo not drawn) here?
Answer: Its IC50 is 1.51 µM (active).

Question: Which EC50 [2] does the source give for CCCCc1nc(CN2CCCC(C(=O)c3ccc(SC)cc3)C2)c[nH]1 (stereo not drawn) here?
Answer: Its EC50 is 1.88 µM (active).

Question: For O=C(c1cccc(C(=O)N2CCN(c3ccccc3)CC2)c1)N1CCN(c2ccccc2)CC1, which EC50 [2] is on record?
Answer: The EC50 was 1.06 µM (active).

Question: For CCN(CC)c1ccc(/C=C(/C#N)c2nc3ccccc3[nH]2)c(OC(C)C)c1, which EC50 [1] is on record?
Answer: Its EC50 is 3.84 µM (active).

Question: What about the EC50 [3] of the same compound?
Answer: Its EC50 is 11.2 µM (active).

Question: And the EC50 [4]?
Answer: Its EC50 is 3.96 µM (active).

Question: And the EC50 [5]?
Answer: The EC50 was 8.13 µM (active).

Question: And the IC50 [6]?
Answer: The IC50 was 1.19 µM (active).

Question: What about the EC50 [7] of the same compound?
Answer: Its EC50 is 11.1 µM (active).

Question: What does the source list for CN(C)CCN(C(=O)C1CCCCC1)c1nc2cc3c(cc2s1)OCO3?
Answer: EC50 [2]: 2.66 µM (active); EC50 [8]: 6.68 µM (active)

Question: Which IC50 (Hexokinase) does the source give for COc1ccc(C(=O)Nc2cc(-c3ccccc3)ccc2C(=O)O)cc1 here?
Answer: Its IC50 is > 25 µM (inactive).

Question: For COc1ccc(C(=O)Nc2cc(Cl)ccc2O)cc1, which IC50 (Hexokinase) is on record?
Answer: The IC50 was 25 µM (inactive).

Question: With O=C(Nc1cc(Cl)ccc1C(=O)O)c1ccc(Cc2ccccc2)cc1 as the compound, how does the IC50 (Hexokinase) read?
Answer: Its IC50 is 13.6 µM (active).

Question: Which results are given for Cc1ccc(S(=O)(=O)Nc2cccc(C(=O)NCC(c3ccco3)N3CCCC3)c2)cc1F (stereo not drawn)?
Answer: EC50 [2]: 0.149 µM (active); EC50 [8]: 1.5 µM (active)

Question: Which results are given for COc1ccc(/C=c2\s/c(=C/C(=O)c3ccc(C)cc3)[nH]c2=O)c(OC)c1?
Answer: EC50 [9]: > 99 µM (inactive); EC50 [10]: 10.7 µM (active); EC50 [11]: > 99 µM (inactive); IC50 [6]: 1.76 µM (active)

Question: Which IC50 (Hexokinase) does the source give for COc1ccc(NC(=O)c2ccccc2C(=O)O)cc1 here?
Answer: The IC50 was > 25 µM (inactive).

From ChEMBL document CHEMBL1201862, “PubChem BioAssay data set” (2004)
